Test results as given in US10928381B2, “In vitro methods of monitoring autophagy in a human cell using a photoconvertable fluorescent protein linked biomarker” (The Regents of the University of Michigan, priority 2018, dated 2021).

Experiments:
[1] = tested on: Dendra2-LC3 HEK cells; test: Optical pulse labeling: time-dependent decay of photoconverted (red, RFP/TRITC) Dendra2-LC3 as measure of autophagic flux; assay type: cell-based, human; set-up: key to Hit class in screen of Enzo Autophagy compound library (9H RFP/0H RFP): enhancer: [Sample9H RFP/OH RFP]<[DMSO9H RFP/OH RFP−3SDDMSO]; inhibitor: [Sample9H RFP/OH RFP]>[DMSO9H RFP/OH RFP 3SDDMSO]; conditions: for Hit class in screen of Enzo Autophagy compound library (9H RFP/0H RFP): 10 uM, 9 hours after drug addition; for Phase II result, Dendra2-LC3 degradation kinetics: in comparison to DMSO
Method: FIGS. 8A-E. Time dependent decay of Dendra2-LC3 as an assay of autophagic flux. (FIG. 8A) Dendra2-LC3 reporter cells were imaged prior to photoconversion to measure background TRITC intensity. Immediately following photoconversion with a 5 second pulse of […] light, cells were treated with DMSO, 1 uM Torin1, or 10 nM Bafilomycin-A1 and then were subsequently imaged at the indicated time points. Images are psuedocolored to better highlight intensity differences. (FIGS. 8B-E) Time dependent changes in photoconverted Dendra2-LC3 fluorescence in the TRITC (FIGS. 8B, D) and GFP (FIGS. 8C, E) channels. Gray boxes represent the pre and post-photoconversion time points. TRITC intensity values are normalized, setting the background intensity prior to conversion to 0 and the post-conversion value to 1. GFP values are normalized to the pre-conversion intensity. Error bars represent the SEM from three replicate experiments. […] (FIG. 8C) Following photoconversion there is a 40% drop in GFP intensity. As new Dendra2-LC3 is synthesized, GFP levels return to pre-photoconversion levels over the span of 13.5 hours. […] Cells were transfected with 20 nM ATG5 siRNA two days prior to imaging.
FIG. 9A-C. Evaluating the efficacy of known autophagy modulators. (FIG. 9A) An unbiased screen of the Enzo Autophagy compound library identified several known autophagy compounds as hits providing construct validity to the assay. Rapamycin, NVP-BEZ235 and AKT inhibitor X, were among the compounds appropriately identified as enhancers while Bafilomycin registered as an inhibitor. […] Cells were imaged in RFP to measure background fluorescence, then photoconverted with a 4 second DAPI exposure and immediately imaged again to establish the postconversion intensity. Drugs from the Enzo Autophagy library were added at a concentration of 10 uM via a robotic liquid handler. 9 hours later the cells were imaged again in order to assess the efficacy of the drugs. Hits were defined as follows: enhancer: [Sample9H RFP/OH RFP]<[DMSO9H RFP/OH RFP−3SDDMSO], inhibitor: [Sample9H RFP/OH RFP]>[DMSO9H RFP/OH RFP 3SDDMSO]. […] Imaging of the compound library was repeated in GFP. Intensity values are reported 15 hours after drug treatment. (FIG. 9C) The reduction in Dendra2-LC3 half-life observed upon treatment of autophagic flux enhancers is attenuated with partial knockdown of ATG5. Cells were transfected with 20 nM ATG5 siRNA 2 days prior to imaging. Error bars represent SEM from three replicate experiments.
Experiments were conducted during development of embodiments herein to develop a sensitive method—optical pulse labeling (OPL)—that takes advantage of the photoconvertible fluorescent protein Dendra2 for estimations of autophagic flux in cellulo (Refs 14, 34; herein incorporated by reference in their entireties) (FIG. 1b). […] Dendra2 was fused to LC3, a specific marker of autophagosomes and itself an autophagy substrate (Refs. 27, 31; herein incorporated by reference in their entireties). Following photoconversion, the time-dependent reduction in red LC3-Dendra2 (FIG. 1c) is used to calculate protein half-life, representing an estimate of autophagy flux for individual cells (Refs. 14, 34; herein incorporated by reference in their entireties) Furthermore, because LC3 is degraded as autophagosomes mature, the return to steady-state levels of green Dendra2-LC3 after photoconversion (FIG. 1d) reflects activity within the pathway as a whole. The assay is noninvasive, permitting longitudinal analyses of autophagy kinetics in living cells, and amenable to HTS.
For these studies the potent mTOR inhibitor torin1 (Ref. 36; herein incorporated by reference in its entirety) was selected as a positive control for autophagy induction, and the vacuolar ATPase inhibitor bafilomycin-A1 (Ref. 37; herein incorporated by reference in its entirety) as a positive control for autophagy inhibition. In each case, DMSO served as a vehicle (negative) control. […]

[2] = tested on: Dendra2-LC3 HEK cells; test: Native (green, GFP) Dendra2-LC3 intensity and puncta, phase I primary screen readout (T15/T0); assay type: cell-based, human; conditions: for Phase I result, normalized GFP intensity (T15/T0): 15 h
Excerpt: Conventional methods for estimating autophagy flux rely upon the assessment of LC3 or other autophagy substrates by Western blotting or immunocytochemistry (Ref. 27; herein incorporated by reference in its entirety); by their very nature, these techniques are static and limited to dead cells. Fluorescence-based methods that use tagged substrates allow visualization of autophagy within living cells, but typically require the overexpression of autophagy target proteins that may disrupt the very process they are intended to measure. To assess autophagy in human cells without compromising or interfering with the pathway, experiments were conducted during development of embodiments herein utilizing CRISPR/Cas9 genome editing (Refs. 29-30; herein incorporated by reference in their entireties) to insert the Dendra2 open reading frame into the MAP1LC3B locus (encoding LC3) of HEK cells (FIG. 2a). A mutated, nickase version of Cas9 (Cas9n) was used that is incapable of making double-stranded DNA breaks, thereby minimizing the risk of non-homologous end joining and unwanted insertions or deletions (Refs. 29, 35; herein incorporated by reference in their entireties). Two separate single guide RNAs (sgRNAs) were designed that recognize sequences just upstream and downstream of the MAP1LC3B start codon, and a homology directed repair (HDR) vector encoding the Dendra2 open reading frame flanked by 400 bp of homologous sequence surrounding the MAP1LC3B start codon (FIG. 2a). Following expression of the sgRNAs, Cas9n and the HDR in HEK cells, colonies were selected based upon green fluorescence and passaged to homogeneity (FIG. 2b). The insertion site was confirmed by DNA sequencing, PCR, and immunocytochemistry using antibodies that recognize LC3. Providing further validation of the insertion, transfection with siRNA directed against the MAP1LC3B locus elicited a significant reduction in Dendra2-LC3 protein levels as measured by western blotting and native GFP fluorescence (FIG. 2c, d). In untreated cells, Dendra2-LC3 fluorescence appears diffuse, as expected (FIG. 3a). […] Second, autophagy induction in these cells is accompanied not only by the formation of puncta, but also by relative decreases in diffuse Dendra2-LC3 fluorescence, as indicated by the model in FIG. 1.
For these studies the potent mTOR inhibitor torin1 (Ref. 36; herein incorporated by reference in its entirety) was selected as a positive control for autophagy induction, and the vacuolar ATPase inhibitor bafilomycin-A1 (Ref. 37; herein incorporated by reference in its entirety) as a positive control for autophagy inhibition. In each case, DMSO served as a vehicle (negative) control. Dendra2-LC3 was photoconverted immediately prior to drug application, and the fluorescence intensity in the green (GFP) and red (RFP) channels was measured at regular intervals for 15 h.
The Z′ value for the effect of torin1 on the normalized GFP intensity, calculated as a ratio of GFP intensity at 15 h to that at 0 h (T15/T0), was 0.63 when the assay was conducted in a 96-well format in our laboratory, and 0.56 when conducted in a 384-well format at the Center for Chemical Genomics (CCG, FIG. 3e), indicative of a robust screening platform (Ref. 38; herein incorporated by reference in its entirety). […] The false negative rate was near zero, ensuring a highly sensitive assay.
The possibility that cell death and toxicity mimics the reduction in GFP intensity that would otherwise denote autophagy induction was also addressed. To avoid confounding from toxicity, the area occupied by cells in each image is calculated using ImageJ software and used as a proxy for cell number; since all wells received the same number of cells, >25% reductions in the area occupied by cells at the end of the experiment indicates toxicity. The formation of Dendra2-LC3 puncta in each condition is scored simultaneously using the ‘analyze particles’ function in ImageJ. […]

[3] = tested on: primary rat cortical neurons overexpressing WT-TDP43-GFP; test: Survival of primary neurons overexpressing TDP43, automated fluorescence microscopy; assay type: cell-based; conditions: 25 nM
[4] = tested on: Tandem reporter (RFP-GFP-LC3) HeLa cells; test: Tandem reporter (RFP-GFP-LC3) assay, % of RFP puncta that are GFP positive; assay type: cell-based; conditions: imaged after 12 hours
Method: FIG. 13A-E. Validation of novel autophagy inhibitors with an independent measure of autophagic flux. (FIG. 13A) Tandem reporter (RFP-GFP-LC3) HeLa cells treated with the indicated compounds and imaged after 12 hours in RFP (middle panels) GFP (bottom panels). […] Concentrations used correspond to the lowest dose resulting in the maximum degree of colocalization between GFP and RFP puncta as calculated in (B). These are: 3 nM Bafilomycin, 1 uM Quinacrine, 50 uM 245536, and 100 uM of 254522, 45808, 234794, and 237373. (Scale bar: 50 μm) (FIG. 13B) The percentage of RFP positive puncta that are also GFP positive in tandem reporter HeLa cells was analyzed using Cell Profiler. First GFP (1a) and RFP (1b) images of the same field of cells are uploaded into Cell Profiler. Using the GFP images, nuclei are identified (2a-green outlines) and a nuclear mask (2b) is generated. […] Cellular boundries are identified (3a-purple outlines) and a cellular mask is created. […] Only puncta within this mask will be evaluated in subsequent steps. […] (FIG. 13D) Tandem reporter HeLa cells were imaged once prior to drug treatment and then treated with the lowest dose that produced the maximum response as calculated in (FIG. 13C) and imaged immediately after. […] Each point is calculated by taking the mean % of (GFP+/RFP+ puncta)/(RFP+) from 8 technical replicates. […]

Structure (SMILES) | Hit class in screen of Enzo Autophagy compound library (9H RFP/0H RFP) [1] | Phase I result, normalized GFP intensity (T15/T0) ([2]; Prestwick and Enzo collections) | Phase II result, Dendra2-LC3 degradation kinetics [1] | further results
CCN(CC)CCCCN1c2ccccc2Oc2ccc(Cl)cc21 [AKT inhibitor X] | enhancer | autophagy inducers | – | –
OCCN1CCN(CCCN2c3ccccc3Sc3ccc(C(F)(F)F)cc32)CC1 [Fluphenazine] | – | – | – | Formation of Dendra2-LC3 (LC3-positive) puncta ([2]; FPZ 0.5 μM, torin1 1 μM): elicits the formation of LC3-positive puncta; GFP intensity of native Dendra2-LC3 ([2]; FPZ 0.5 μM, torin1 1 μM, vs DMSO): reduces the steady-state GFP intensity
Cn1c(=O)n(-c2ccc(C(C)(C)C#N)cc2)c2c3cc(-c4cnc5ccccc5c4)ccc3ncc21 [NVP-BEZ235] | enhancer | – | – | Rank among autophagy inducers in phase I ([2]; Prestwick and Enzo collections): rank among the most potent inducers; Effect on TDP43 toxicity [3]: suppresses toxicity; Hazard ratio, Cox proportional hazards analysis ([3]; p<0.05): 0.89
CCN(CC)CCCC(C)Nc1c2ccc(Cl)cc2nc2ccc(OC)cc12 (stereo not drawn) [Quinacrine] | – | – | – | Lowest dose resulting in the maximum degree of colocalization between GFP and RFP puncta [4]: 1 µM
CO[C@H]1C[C@@H]2CC[C@@H](C)[C@@](O)(O2)C(=O)C(=O)N2CCCC[C@H]2C(=O)O[C@H]([C@H](C)C[C@@H]2CC[C@@H](O)[C@H](OC)C2)CC(=O)[C@H](C)/C=C(\C)[C@@H](O)[C@@H](OC)C(=O)[C@H](C)C[C@H](C)/C=C/C=C/C=C/1C [Rapamycin] | enhancer | – | – | –
O=C(CCCCCN1C(=O)c2cccc3cccc(c23)C1=O)NO [Scriptaid] | – | significant increases in Dendra2-LC3 GFP fluorescence | significantly slowed Dendra2-LC3 degradation | –
NC(=O)N1c2ccccc2C=Cc2ccccc21 [carbamazepine] | failure to markedly affect flux | significant increases in Dendra2-LC3 GFP fluorescence | significantly slowed Dendra2-LC3 degradation | –
C[C@@H]1C[C@@H]([C@H](O)CC2CC(=O)NC(=O)C2)C(=O)[C@@H](C)C1 [cycloheximide] | – | potential autophagy inducers | failed to affect Dendra2-LC3 degradation kinetics | –
OC[C@H]1O[C@H](O[C@H]2O[C@H](CO)[C@@H](O)[C@H](O)[C@H]2O)[C@H](O)[C@@H](O)[C@@H]1O [trehalose] | failure to markedly affect flux | – | – | –
